From patent US20220257532A1 (priority 2017, published 2022)
“Also recorded” adds a separate entry of the source. Like-named read-outs stand apart in the source and are kept apart here.

Legend:
[1] = molecular target: T1, acetylcholinesterase (AChE, EC3.1.1.7) (Electrophorus electricus, UniProt O42275); test: In vitro cholinesterase activity assay (Ellman) and enzyme kinetics, AChE; assay type: biochemical; conditions: for Inhibition type Acetylcholinesterase: Dixon plot and Lineweaver plot; for AChE inhibition / IC50 rank, in words: among the compounds tested
T1 construct: purchased Sigma-Aldrich Co. (St. Louis, Mo., USA)
Protocol: (§1) The reaction started with the addition of 10 μL of DTNB and 10 μL of Ach or Bch.
(§2) Briefly, the basis for this assay is the hydrolysis of acetylthiocholine by acetylcholinesterase, producing thiocholine that reacts with DTNB. […] Degrees of inhibition were calculated according to […] wherein E and S represent enzyme activities in the presence and absence of a test sample, respectively.
(§3) The compounds of Table 1 were evaluated for anti-Alzheimer activity. In this regard, inhibitory activity against AChE (acetylcholinesterase) and BChE (butyrylcholinesterase), which lyse acetylcholine in the central nervous system, was measured according to the Experimental Method to calculate IC(inhibition concentrations)50 values.

[2] = molecular target: BACE1 (β-secretase, recombinant human enzyme) (Homo sapiens, UniProt P56817); test: biochemical; assay type: biochemical; conditions: for Inhibition type BACE1: Dixon plot and Lineweaver plot; for BACE1 IC50 compared with quercetin, in words: positive control quercetin
Protocol: A BACE1 fluorescence resonance energy transfer (FRET) assay kit (β-secretase, recombinant human enzyme) was purchased from Pan Vera Co. (Madison, Wis., USA).
BACE1 is an enzyme promotive of the production of β-amyloid, which destroys neurons. In order to examine the effects on the compounds of Table 1 on the activity of BACE1, IC(inhibition concentrations)50 values were determined by measuring BACE1 activity in vitro according to Experimental Methods.

[3] = molecular target: T2, butyrylcholinesterase (BChE, EC3.1.1.8) (Equus caballus, UniProt P81908); test: In vitro cholinesterase activity assay (Ellman) and enzyme kinetics, BChE; assay type: biochemical; conditions: for Inhibition type Butyrylcholinesterase: Dixon plot and Lineweaver plot; for SI selectivity index (BChE/AChE): ratio of IC50 BChE/AChE; for BChE inhibition / IC50 rank, in words: among the compounds tested
T2 construct: horse serum butyrylcholinesterase (BChE, EC3.1.1.8); purchased Sigma-Aldrich Co. (St. Louis, Mo., USA); host or cells: horse serum
Protocol: as §1, §2, §3

[4] = test system: B16F10 (mouse melanoma cell-line); test: MTT cytotoxicity assay, cancerous cell line; assay type: cell-based; conditions: for LD50 Cancer cell 816F10: MTT, incubated for 48 hours with compound; for toxicity to cancerous cells, in words: conclusion from LD50, MTT
Protocol: (§4) Mouse fibroblast cell line NIH3T3 and mouse melanoma cell line B16F10 were separately seeded at a density of 1×10^3 cells/well into 96-well plates and grown in DMEM supplemented with 10% FBS (fetal bovine serum) at 37° C. in a 5% CO2 atmosphere. The cells in each cell were incubated for 24 hours with predetermined concentrations of each of the compounds (pterosin A, pterosin B, pterosin C, pterosin D, pterosin P, pterosin Z, pteroside A, pteroside A2, pteroside B, pteroside C isomers, pteroside D, pteroside N, pteroside P, and pteroside Z) and then for 2 hours with 100 μL of MTT (0.5 mg/ml PBS). After aspiration of the medium from each well, incubation was conducted for 10 min with 100 μL of DMSO. Absorbance at 570 nm was read using a microplate reader (SPCTRA MAX 340PC, Molecular Devices, USA). Absorbance is an index accounting for a number of viable cells and was used to calculate cell proliferation rates according to the following formula. All experiments were conducted three times for reproducibility.
(§5) Cell proliferation rate (%)=OD550 (sample)/OD550 (control)
(§6) The normal cell line NIH3T3 (mouse embryo fibroblast cell-line) and the cancerous cell line B16F10 (mouse melanoma cell-line) were separately grown in 96-well plates and incubated for 48 hours with predetermined concentrations of each of the compounds. After additional incubation with MTT, absorbance at 550 nm was read using a microplate reader. Absorbance is an index accounting for a number of viable cells and was used to calculate cell proliferation rates according to the following formula. All experiments were conducted three times for reproducibility.
(§7) Cell proliferation rate (%)=OD550(sample)/OD550(control)
(§8) Then, LD50 (Lethal Dose 50) values were calculated on the basis of changes in the cell proliferation rate.

[5] = test system: NIH3T3 (mouse embryo fibroblast cell-line); test: MTT cytotoxicity assay, normal cell line; assay type: cell-based; conditions: conclusion from LD50, MTT
Protocol: as §4, §5, §6, §7, §8

[6] = concentrations up to 125 μM, read-out: IC50 Acetylcholine esterase Mean ± SEM
[7] = concentrations up to 125 μM, read-out: IC50 Butyrylcholine esterase Mean ± SEM

T2 sequence (P81908 whole entry): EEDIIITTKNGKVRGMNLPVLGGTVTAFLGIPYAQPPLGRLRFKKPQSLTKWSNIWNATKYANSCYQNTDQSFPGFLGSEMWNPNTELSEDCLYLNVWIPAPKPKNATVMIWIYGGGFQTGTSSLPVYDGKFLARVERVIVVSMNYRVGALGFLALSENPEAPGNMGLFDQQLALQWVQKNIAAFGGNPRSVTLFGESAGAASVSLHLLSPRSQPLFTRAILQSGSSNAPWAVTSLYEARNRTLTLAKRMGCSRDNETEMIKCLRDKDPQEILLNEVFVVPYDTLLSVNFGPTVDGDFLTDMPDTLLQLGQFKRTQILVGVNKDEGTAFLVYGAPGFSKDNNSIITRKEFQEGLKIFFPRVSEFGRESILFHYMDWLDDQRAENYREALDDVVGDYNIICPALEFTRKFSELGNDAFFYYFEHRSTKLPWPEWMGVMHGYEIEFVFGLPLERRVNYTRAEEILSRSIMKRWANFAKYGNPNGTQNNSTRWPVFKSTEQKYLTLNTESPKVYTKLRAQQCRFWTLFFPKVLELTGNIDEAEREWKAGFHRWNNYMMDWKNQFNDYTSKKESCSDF
T1 sequence (O42275 24-633): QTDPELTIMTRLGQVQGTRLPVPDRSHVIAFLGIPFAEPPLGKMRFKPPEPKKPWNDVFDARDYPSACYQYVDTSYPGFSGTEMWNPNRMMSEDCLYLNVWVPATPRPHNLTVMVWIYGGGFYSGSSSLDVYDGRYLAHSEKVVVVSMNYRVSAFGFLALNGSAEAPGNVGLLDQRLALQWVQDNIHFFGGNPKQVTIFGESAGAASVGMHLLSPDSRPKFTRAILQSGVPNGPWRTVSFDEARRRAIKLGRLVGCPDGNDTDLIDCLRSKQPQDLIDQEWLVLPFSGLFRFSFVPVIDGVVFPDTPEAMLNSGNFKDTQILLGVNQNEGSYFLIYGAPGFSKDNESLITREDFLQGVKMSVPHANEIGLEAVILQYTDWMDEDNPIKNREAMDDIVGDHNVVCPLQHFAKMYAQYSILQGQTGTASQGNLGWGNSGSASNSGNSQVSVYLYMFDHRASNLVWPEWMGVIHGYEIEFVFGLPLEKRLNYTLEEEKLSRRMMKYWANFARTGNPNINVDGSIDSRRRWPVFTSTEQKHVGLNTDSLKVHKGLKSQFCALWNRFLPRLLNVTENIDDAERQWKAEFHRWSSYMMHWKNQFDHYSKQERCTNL
BACE1 (β-secretase, recombinant human enzyme), sequence (P56817 46-501): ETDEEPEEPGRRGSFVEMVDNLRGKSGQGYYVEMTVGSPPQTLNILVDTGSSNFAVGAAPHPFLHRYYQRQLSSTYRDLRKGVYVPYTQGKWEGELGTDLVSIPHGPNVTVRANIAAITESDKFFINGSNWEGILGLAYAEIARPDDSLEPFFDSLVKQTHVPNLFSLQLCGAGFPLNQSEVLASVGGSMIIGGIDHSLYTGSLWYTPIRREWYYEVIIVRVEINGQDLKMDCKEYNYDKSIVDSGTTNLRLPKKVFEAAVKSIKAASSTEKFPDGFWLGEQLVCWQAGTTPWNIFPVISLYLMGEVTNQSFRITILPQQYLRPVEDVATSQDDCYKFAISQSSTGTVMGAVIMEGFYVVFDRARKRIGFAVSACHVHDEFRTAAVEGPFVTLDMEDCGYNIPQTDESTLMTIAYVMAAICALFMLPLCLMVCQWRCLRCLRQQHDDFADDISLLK

| Structure (SMILES) | IC50 [2] [µM] | Inhibition type BACE1 [2] | BACE1 IC50 compared with quercetin, in words [2] | SI selectivity index (BChE/AChE) [3] | other results |
| --- | --- | --- | --- | --- | --- |
| Cc1cc2c(c(C)c1CCO)C(=O)[C@H](C)[C@H]2O [Compound 7, (2R,3R)-pterosin C] | 15.9 ± 3.5 | mixed | lower than or similar to that of quercetin | 0.88 | Inhibition type Acetylcholinesterase [1]: noncompetitive; Inhibition type Butyrylcholinesterase [3]: mixed |
| Cc1cc2c(c(C)c1CCO)C(=O)[C@](C)(CO)C2 [Compound 3, (2S)-pterosin A] | 64.9 ± 5.1 |  |  | 12 | IC50 [1, 6]: 88.7 ± 2.6 µM; LD50 Cancer cell 816F10 [4]: 522 ± 25 µM; toxicity to cancerous cells, in words [4]: slight cytotoxicity; IC50 [3, 7]: 57.3 ± 3.3 µM |
| Cc1cc2c(c(C)c1CCO)C(=O)C(C)(C)[C@@H]2O [Compound 9, (3R)-Pterosin D] | 56.3 ± 3.9 |  |  |  | IC50 [3]: > 12 µM; BChE inhibition / IC50 rank, in words [3]: highest |
| Cc1cc2c(c(C)c1CCO)C(=O)[C@@H](C)[C@@H]2O [Compound 6, (2S,3S)-pterosin C] |  |  | lower than or similar to that of quercetin |  | BChE inhibition / IC50 rank, in words [3]: excellent |
| Cc1cc2c(c(C)c1CCO[C@@H]1OC(CO)[C@@H](O)[C@H](O)C1O)C(=O)C(C)(C)C2 (stereo partly drawn) [Compound 20, pteroside Z] |  |  |  | 0.24 | BChE inhibition / IC50 rank, in words [3]: excellent |
| Cc1cc2c(c(C)c1CCO)C(=O)[C@@H](C)[C@H]2O [Compound 8, (2S,3R)-pterosin C] | 14.1 ± 1.6 | noncompetitive | lower than or similar to that of quercetin | 3.5 | Inhibition type Acetylcholinesterase [1]: mixed; Inhibition type Butyrylcholinesterase [3]: noncompetitive |
| Cc1cc2c(c(C)c1CCO)C(=O)[C@](C)(COC1O[C@H](CO)[C@@H](O)[C@H](O)[C@H]1O)C2 (stereo partly drawn) [Compound 13, (2S)-pteroside A2] | 94.4 ± 4.5 |  |  | 3.0 | IC50 [3]: 119 ± 2.5 µM |
| Cc1cc2c(c(C)c1CCO[C@@H]1OC(CO)[C@@H](O)[C@H](O)C1O)C(=O)[C@@H](C)[C@H]2O (stereo partly drawn) [Compound 15, (2S,3R)-pteroside C] |  |  |  | 1.4 | IC50 [1, 6]: 9.57 ± 0.32 µM; IC50 [3, 7]: 12 ± 0.14 µM |
| Cc1cc2c(c(C)c1CCO[C@@H]1OC(CO)[C@@H](O)[C@H](O)C1O)C(=O)[C@H](C)C2 (stereo partly drawn) [Compound 14, (2R)-pteroside B] |  | noncompetitive |  |  | Inhibition type Acetylcholinesterase [1]: mixed; AChE inhibition / IC50 rank, in words [1]: lowest; also recorded: excellent; Inhibition type Butyrylcholinesterase [3]: mixed; BChE inhibition / IC50 rank, in words [3]: excellent; IC50 [3, 7]: 17 µM |
| Cc1cc2c(c(C)c1CCO[C@@H]1OC(CO)[C@@H](O)[C@H](O)C1O)C(=O)C(C)(C)[C@H]2O (stereo partly drawn) [Compound 17, (3S)-pteroside D] |  | mixed | lower than or similar to that of quercetin | 0.70 |  |
| Cc1cc2c(c(C)c1CCO)C(=O)[C@H](C)C2 [Compound 4, (2R)-pterosin B] | 18 ± 2 | noncompetitive |  | 3.0 | Inhibition type Acetylcholinesterase [1]: mixed; AChE inhibition / IC50 rank, in words [1]: excellent; Inhibition type Butyrylcholinesterase [3]: noncompetitive |
| Cc1cc2c(c(C)c1CCO)C(=O)C(C)(C)C2 [Compound 11, pterosin Z] | 48.7 ± 3.2 |  |  | 1.7 | LD50 Cancer cell 816F10 [4]: 618 ± 71 µM; toxicity to cancerous cells, in words [4]: slightly toxic; toxicity to normal cells, in words [5]: slightly toxic |
| CC(=O)C1(/C(C)=C\C2=CC(=O)C(C)C2)CC1 (stereo not drawn) [Compound 2, 3-[2-(1-Acetylcyclopropyl)-1-propenyl)-5-methyl-2-cyclopenten-1-one] | 19.4 ± 1.7 | mixed type | lower than or similar to that of quercetin | 0.83 | IC50 [1]: 87.7 ± 1.6 µM; AChE inhibition / IC50 rank, in words [1]: highest; LD50 Cancer cell 816F10 [4]: 688 µM; toxicity to cancerous cells, in words [4]: slightly toxic; toxicity to normal cells, in words [5]: almost non-toxic; toxicity to normal cells, in words ([5]; listed as compound of Chemical Formula 2): non-toxic; IC50 [3]: 72.9 ± 0.73 µM |
| Cc1c(CCO[C@@H]2OC(CO)[C@@H](O)[C@H](O)C2O)c(CO)cc2c1C(=O)[C@@H](C)C2 (stereo partly drawn) [Compound 19, (2S)-pteroside P] |  |  |  | 0.57 |  |
| Cc1c(CCO)c(CO)cc2c1C(=O)[C@@H](C)C2 [Compound 10, (2S)-pterosin P] | 40.8 ± 4.1 |  |  | 3.1 |  |
| Cc1cc2c(c(C)c1CCO[C@@H]1OC(CO)[C@@H](O)[C@H](O)C1O)C(=O)[C@H](C)[C@H]2O (stereo partly drawn) [Compound 16, (2R,3R)-pteroside C] |  | mixed | lower than or similar to that of quercetin | 1.4 | AChE inhibition / IC50 rank, in words [1]: excellent; BChE inhibition / IC50 rank, in words [3]: lowest |
| Cc1cc2c(c(C)c1CCO[C@@H]1OC(CO)[C@@H](O)[C@H](O)C1O)C(=O)[C@](C)(CO)C2 (stereo partly drawn) [Compound 12, (2S)-pteroside A] |  |  |  |  | IC50 [3, 7]: 199 ± 0.25 µM |
| Cc1cc2c(c(C)c1CCO[C@@H]1OC(CO)[C@@H](O)[C@H](O)C1O)C(=O)[C@](C)(O)C2 (single isomer, unassigned; (-)) [Compound 18, (−)-pteroside N] |  |  |  | 1.7 |  |
